From PMC7217877, “N-AS-triggered SPMs are direct regulators of microglia in a model of Alzheimer’s disease” (Nature Communications, 2020)
Where “and” joins values, the source holds several entries; their conditions need not be identical. Identical values can stand only once.

Tests used:
APP/PS1 mice [1] = assay: tau hyperphosphorylation (AT8) quantification (Fig 6g); format: in vivo, mouse
Method: (§1) Thioflavin S (Sigma-Aldrich) staining was carried out according to previously described procedures. We used 6E10 (mouse, 1:100, Signet, SIG39300), anti-20G10 (mouse, 1:1000, provided by D. R. Howlett, GlaxoSmithKline, Harlow, Essex, UK) for Aβ42, anti-G30 (rabbit, 1:1000, provided by D. R. Howlett) for Aβ40, SMA (mouse, 1:400, Sigma-Aldrich, A2547), AT8 (mouse, 1:500, Thermo Fisher Scientific, MN1020), Caspase-3 (mouse, 1:200, Novus Biologicals, NB100-56708), ac-S565 (rabbit, 1:100), COX2 (mouse, 1:250, Thermo Fisher Scientific, 35-8200), Iba1 (rabbit, 1:500, Wako, 019-19941 and goat, Abcam, ab5076), NeuN (mouse, 1:500, Millipore, MAB177), GFAP (rabbit, 1:500, Dako, N1506 and chicken, 1:500, Abcam, ab4674), and Lamp1 (mouse, 1:200, Abcam, ab24170). The sections were analyzed with a laser-scanning confocal microscope (FV3000; Olympus) or with a BX51 microscope (Olympus). MetaMorph software (Molecular Devices) was used to quantification. Three-dimensional reconstruction of microglia was recorded and analyzed using IMARIS software (Bitplane)[11]. For the analysis of age-dependent microglial COX2^+ CX3CR1^+ cells in WT and APP/PS1 mice, COX2 (rabbit, 1:100, Abcam, ab15191) and CX3CR1 (mouse, 1:100, BioLegend, 149008) antibody were used and the images were acquired on Alexa 488 and APC Channel with performed using Operetta CLS and Analysis Software 4.5 (Perkin-Elmer). […]

APP/PS1 mice [2] = assay: ac-S565 COX2 in microglia and neuron of treated mice (immunofluorescence, western blot, Fig 4c,d); format: in vivo, mouse; settings: APP/PS1 + N-AS, individual values
Excerpt: Adult neurons and microglia were isolated from the mice brain as previously described. In brief, the cortex of WT (1, 3, 5, or 9-months-old), APP/PS1 (1, 3, 5, or 9-months-old), APP/PS1 treated with N-AS (9-months-old) or APP/PS1 treated with aspirin (9-months-old) mice were minced in Hibernate A (Gibco)/B27 (Invitrogen) medium and dissociated using papain (Worthington) solution. After tissue trituration, cells were separated by Optiprep (Sigma-Aldrich) density gradient centrifugation. The purity of the fractionated neurons and microglia were acutely confirmed by neuronal (NeuN, mouse, 1:200, Millipore, MAB377) and microglial (Iba1, rabbit, 1:1000, Wako, 019-19941) markers and the isolated neurons and microglia were acutely analyzed for the acetylation assay and lipid mediators metabololipidomics.
as §1, with “(Bitplane)[11].” for “(Bitplane)[11]. For the analysis of age-dependent microglial COX2^+ CX3CR1^+ cells in WT and APP/PS1 mice, COX2 (rabbit, 1:100, Abcam, ab15191) and CX3CR1 (mouse, 1:100, BioLegend, 149008) antibody were used and the images were acquired on Alexa 488 and APC Channel with performed using Operetta CLS and Analysis Software 4.5 (Perkin-Elmer).”
Samples were lysed in RIPA buffer (Cell signaling Technologies), then subjected to SDS-PAGE and transferred to a nitrocellulose membrane. […] We performed densitometric quantification using the ImageJ software (National Institutes of Health). […]

## CCCCCCCCCCCCC/C=C/[C@@H](O)[C@H](CO)NC(C)=O [N-AS, N-((2S,3R,E)-1,3-Dihydroxyoctadec-4-en-2-yl)acetamide]
APP/PS1 mice [1]; APP/PS1 + N-AS, individual animals
  tau hyperphosphorylation (AT8) quantification (Figure 6g): 0.1647 and 0.1634 and 0.2394 and 0.275 and 0.2281 and 0.1841
APP/PS1 mice [1]; APP/PS1 treated with N-AS
  tau hyperphosphorylation: reduced
APP/PS1 mice [2]
  microglia (Iba1) with ac-S565 and COX2 in cortex, quantification (Fig 4c): 2.146 and 2.677 and 1.427 and 1.497 and 1.3659 and 1.3538
APP/PS1 mice [2]; Microglia
  ac-S565 / total COX2, western blot (Fig 4d): 1.271 and 0.7861 and 0.8284 and 0.7309 and 1.0567 and 1.371
APP/PS1 mice [2]; Neuron
  ac-S565 / total COX2, western blot (Fig 4d): 0.9062 and 0.3691 and 0.5034 and 0.9834 and 0.3378 and 0.4586
